Among the data in US20220220128A1, “HETEROCYCLIC COMPOUNDS AS KINASE INHIBITORS, COMPOSITIONS COMPRISING THE HETEROCYCLIC COMPOUND, AND METHODS OF USE THEREOF” (JS Innopharm (Shanghai) Ltd, priority 2019, published 2022) are IC50 values, retold here.

One assay addresses T1, human RET kinase (Homo sapiens, UniProt P07949).
T1 construct: purchased Carna 08-159
The assay can be described thus: RET Kinase Assay (LanthaScreen TR-FRET enzymatic assay). It counts as biochemical. Particulars: 7 nM RET, 23 μM ATP. In a few lines:
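TR-FRET enzymatic read-out using 23 μM ATP, 3 μM FAM-P2 substrate and 7 nM human RET, after 15-min compound pretreatment at room temperature and a 1 h reaction at 28° C in HEPES pH 7.5 buffer. Percent of DMSO control fitted to nonlinear sigmoid curves for IC50.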
Background: In TR-FRET formats the signal depends on donor and acceptor labels being close together.

The next assay deals with T2, human KDR kinase (Homo sapiens, UniProt P35968).
T2 construct: purchased Carna 08-191
The assay can be described thus: KDR Kinase Assay (LanthaScreen TR-FRET enzymatic assay). It counts as biochemical. The following applies: 1.2 nM KDR, 92 μM ATP. In a few lines: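 TR-FRET enzymatic format: after 15-min room-temperature compound pretreatment, 1.2 nM human KDR phosphorylated 3 μM FAM-P22 with 92 μM ATP (HEPES pH 7.5, 28° C., one hour). Reactions were quenched with EDTA buffer. IC50 came from nonlinear sigmoid fits of percent-of-vehicle signal ratios.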

The next assay has as its system TT cells. The assay can be described thus: TT Cell Proliferation Assay (WST-8, 8 days). It counts as cell-based. The following applies: growth inhibition in TT cells, read-out: TT Cellular Activity. In short, it runs like this: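 IC50 was derived from absorbance at 450 nm after 5 h with WST-8, following 8 days' incubation at 37 °C. Final compound levels spanned 0.0005–5 μM in 0.5% DMSO. TT cells were seeded at 6,000 per well in 10% FBS RPMI-1640 and left to attach for 24 h beforehand.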

Structures are written as SMILES. Where two headings read alike, the source gives them in different places.

T1 sequence (P07949 29-1114): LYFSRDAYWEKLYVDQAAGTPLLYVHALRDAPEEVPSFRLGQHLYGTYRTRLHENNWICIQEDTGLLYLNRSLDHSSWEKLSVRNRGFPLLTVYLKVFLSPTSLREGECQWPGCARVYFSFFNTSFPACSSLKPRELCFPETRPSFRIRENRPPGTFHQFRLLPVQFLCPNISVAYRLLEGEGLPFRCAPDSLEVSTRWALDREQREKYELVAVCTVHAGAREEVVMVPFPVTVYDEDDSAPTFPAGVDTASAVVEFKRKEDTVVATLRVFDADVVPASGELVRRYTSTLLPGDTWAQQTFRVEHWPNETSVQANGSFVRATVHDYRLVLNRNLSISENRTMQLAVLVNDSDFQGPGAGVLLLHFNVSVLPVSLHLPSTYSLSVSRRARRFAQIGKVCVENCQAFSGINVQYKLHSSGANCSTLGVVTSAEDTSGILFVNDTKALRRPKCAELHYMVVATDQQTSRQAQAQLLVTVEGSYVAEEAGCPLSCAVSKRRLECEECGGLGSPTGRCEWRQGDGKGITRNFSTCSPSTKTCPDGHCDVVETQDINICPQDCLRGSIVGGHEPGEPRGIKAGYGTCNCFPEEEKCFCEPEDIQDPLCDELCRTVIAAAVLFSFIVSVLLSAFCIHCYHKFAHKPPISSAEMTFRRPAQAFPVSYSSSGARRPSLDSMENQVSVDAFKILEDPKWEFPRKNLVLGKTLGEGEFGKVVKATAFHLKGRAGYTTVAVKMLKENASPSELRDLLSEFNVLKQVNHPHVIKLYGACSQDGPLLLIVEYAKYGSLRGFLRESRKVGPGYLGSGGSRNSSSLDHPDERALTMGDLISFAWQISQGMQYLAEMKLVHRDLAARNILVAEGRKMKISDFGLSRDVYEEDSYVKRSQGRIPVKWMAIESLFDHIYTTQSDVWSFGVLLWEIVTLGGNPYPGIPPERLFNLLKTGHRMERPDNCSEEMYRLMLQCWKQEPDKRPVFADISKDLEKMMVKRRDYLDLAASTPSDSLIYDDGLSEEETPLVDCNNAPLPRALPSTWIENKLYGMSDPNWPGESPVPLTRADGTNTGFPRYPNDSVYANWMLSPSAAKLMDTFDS
T2 sequence (P35968 20-1356): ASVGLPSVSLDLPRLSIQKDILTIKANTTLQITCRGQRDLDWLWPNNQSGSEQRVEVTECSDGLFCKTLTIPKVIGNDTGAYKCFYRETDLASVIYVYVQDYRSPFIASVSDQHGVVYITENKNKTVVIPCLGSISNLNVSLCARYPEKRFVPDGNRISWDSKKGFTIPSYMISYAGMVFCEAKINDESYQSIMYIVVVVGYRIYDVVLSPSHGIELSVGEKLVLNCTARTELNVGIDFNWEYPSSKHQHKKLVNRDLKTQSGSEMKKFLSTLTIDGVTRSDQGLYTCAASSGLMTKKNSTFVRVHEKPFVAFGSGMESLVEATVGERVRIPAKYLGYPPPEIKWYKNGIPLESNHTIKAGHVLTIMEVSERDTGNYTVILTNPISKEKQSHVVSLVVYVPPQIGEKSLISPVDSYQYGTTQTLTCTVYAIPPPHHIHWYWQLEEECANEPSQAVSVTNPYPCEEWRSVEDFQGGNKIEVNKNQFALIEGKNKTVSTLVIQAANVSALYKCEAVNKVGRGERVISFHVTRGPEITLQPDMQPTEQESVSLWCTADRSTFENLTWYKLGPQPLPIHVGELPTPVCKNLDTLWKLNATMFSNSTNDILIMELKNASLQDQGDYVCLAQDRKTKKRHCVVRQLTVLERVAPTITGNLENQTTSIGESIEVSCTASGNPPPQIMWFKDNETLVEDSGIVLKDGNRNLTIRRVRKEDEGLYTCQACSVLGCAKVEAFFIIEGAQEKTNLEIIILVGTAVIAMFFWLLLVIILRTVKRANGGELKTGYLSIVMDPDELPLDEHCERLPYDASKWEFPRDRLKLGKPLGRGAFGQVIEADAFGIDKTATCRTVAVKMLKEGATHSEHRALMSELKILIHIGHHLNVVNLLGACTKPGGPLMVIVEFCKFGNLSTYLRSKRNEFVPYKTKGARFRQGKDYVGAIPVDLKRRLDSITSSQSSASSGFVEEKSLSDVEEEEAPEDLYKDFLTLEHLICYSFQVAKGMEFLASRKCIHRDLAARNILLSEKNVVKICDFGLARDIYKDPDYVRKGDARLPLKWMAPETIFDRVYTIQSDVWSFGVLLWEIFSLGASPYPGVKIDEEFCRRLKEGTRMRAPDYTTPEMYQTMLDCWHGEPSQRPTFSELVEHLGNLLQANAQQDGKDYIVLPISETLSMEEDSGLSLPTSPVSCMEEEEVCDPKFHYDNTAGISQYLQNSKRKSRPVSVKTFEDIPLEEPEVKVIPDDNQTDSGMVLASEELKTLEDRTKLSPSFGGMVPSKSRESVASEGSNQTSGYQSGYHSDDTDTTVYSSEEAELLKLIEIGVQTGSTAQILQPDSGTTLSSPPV

For `Cn1cc(-c2cc(-c3ccc(N4C[C@@H]5[C@@H](CNC(=O)OC(C)(C)C)[C@@H]5C4)nc3)c3c(C#N)cnn3c2)cn1` [Example 71, tert-butyl (((1R,5S,6s)-3-(5-(3-cyano-6-(1-methyl-1H-pyrazol-4-yl)pyrazolo[1,5-a]pyridin-4-yl)pyridin-2-yl)-3-azabicyclo[3.1.0]hexan-6-yl)methyl)carbamate], the IC50 against human RET kinase was no more than 10 nM; at human KDR kinase, 10 to 50 nM; in the assay with TT cells (Homo sapiens, TT, 192 h), no more than 10 nM.

As for `CC(C)CC(=O)NC[C@@H]1[C@H]2CN(c3ccc(-c4cc(-c5cnn(C)c5)cn5ncc(C#N)c45)cn3)C[C@@H]12` [Example 88, N-(((1R,5S,6s)-3-(5-(3-cyano-6-(1-methyl-1H-pyrazol-4-yl)pyrazolo[1,5-a]pyridin-4-yl)pyridin-2-yl)-3-azabicyclo[3.1.0]hexan-6-yl)methyl)-3-methylbutanamide], the IC50 at human RET kinase is no more than 10 nM; against human KDR kinase, 10 to 50 nM; in the assay with TT cells (Homo sapiens, TT, 192 h) it was no more than 10 nM.

In the case of `CC(C)(O)COc1cc(-c2ccc(N3C[C@@H]4[C@H](C3)[C@H]4NC(=O)[C@H](O)c3ccccc3)nc2)c2c(C#N)cnn2c1` [Example 40, (R)-N-((1R,5S,6s)-3-(5-(3-cyano-6-(2-hydroxy-2-methylpropoxy)pyrazolo[1,5-a]pyridin-4-yl)pyridin-2-yl)-3-azabicyclo[3.1.0]hexan-6-yl)-2-hydroxy-2-phenylacetamide], the IC50 at human RET kinase was 10 to 50 nM; at human KDR kinase, greater than 100 nM; in the assay on TT cells (Homo sapiens, TT, 192 h) it was 50 to 100 nM.

On to `Cn1cc(-c2cc(-c3ccc(N4C[C@@H]5[C@@H](CNC(=O)C(O)c6ccccc6)[C@@H]5C4)nc3)c3c(C#N)cnn3c2)cn1` (stereo partly drawn) [Example 76, N-(((1R,5S,6s)-3-(5-(3-cyano-6-(1-methyl-1H-pyrazol-4-yl)pyrazolo[1,5-a]pyridin-4-yl)pyridin-2-yl)-3-azabicyclo[3.1.0]hexan-6-yl)methyl)-2-hydroxy-2-phenylacetamide], for which the IC50 against human RET kinase was no more than 10 nM; at human KDR kinase, no more than 10 nM; in the assay with TT cells (Homo sapiens, TT, 192 h), 10 to 50 nM.

Take `Cn1cc(-c2cc(-c3ccc(N4C[C@@H]5[C@@H](CNC(=O)c6ncc(F)cc6Cl)[C@@H]5C4)nc3)c3c(C#N)cnn3c2)cn1` [Example 85, 3-chloro-N-(((1R,5S,6s)-3-(5-(3-cyano-6-(1-methyl-1H-pyrazol-4-yl)pyrazolo[1,5-a]pyridin-4-yl)pyridin-2-yl)-3-azabicyclo[3.1.0]hexan-6-yl)methyl)-5-fluoropicolinamide]: the IC50 against human RET kinase was no more than 10 nM; at human KDR kinase, no more than 10 nM; with TT cells (Homo sapiens, TT, 192 h), no more than 10 nM.

`Cc1ccc(F)cc1C(=O)N[C@H]1[C@@H]2CN(c3ccc(-c4cc(-c5cnn(C)c5)cn5ncc(C#N)c45)cn3)C[C@@H]21` [Example 26, N-((1R,5S,6s)-3-(5-(3-cyano-6-(1-methyl-1H-pyrazol-4-yl)pyrazolo[1,5-a]pyridin-4-yl)pyridin-2-yl)-3-azabicyclo[3.1.0]hexan-6-yl)-5-fluoro-2-methylbenzamide]: the IC50 was no more than 10 nM on human RET kinase; no more than 10 nM against human KDR kinase; 10 to 50 nM in the assay on TT cells (Homo sapiens, TT, 192 h).

As for `CC(C)(O)COc1cc(-c2ccc(N3C[C@@H]4[C@@H](CNS(=O)(=O)c5c(F)cccc5Cl)[C@@H]4C3)nc2)c2c(C#N)cnn2c1` [Example 184, 2-chloro-N-(((1R,5S,6r)-3-(5-(3-cyano-6-(2-hydroxy-2-methylpropoxy)pyrazolo[1,5-a]pyridin-4-yl)pyridin-2-yl)-3-azabicyclo[3.1.0]hexan-6-yl)methyl)-6-fluorobenzenesulfonamide], the IC50 was 10 to 50 nM against human RET kinase; greater than 100 nM at human KDR kinase; 50 to 100 nM with TT cells (Homo sapiens, TT, 192 h).

In the case of `CC(C)(O)COc1cc(-c2ccc(N3C[C@@H]4C[C@@](C)(NC(=O)c5ncccc5C#N)C[C@@H]4C3)nc2)c2c(C#N)cnn2c1` [Example 127, 3-cyano-N-((3aR,5s,6aS)-2-(5-(3-cyano-6-(2-hydroxy-2-methylpropoxy)pyrazolo[1,5-a]pyridin-4-yl)pyridin-2-yl)-5-methyloctahydrocyclopenta[c]pyrrol-5-yl)picolinamide], the IC50 on human RET kinase is no more than 10 nM; against human KDR kinase it was greater than 100 nM; in the assay on TT cells (Homo sapiens, TT, 192 h), 10 to 50 nM.

Consider `Cn1cc(-c2cc(-c3cnc(N4C[C@@H]5C[C@@](C)(NC(=O)c6ncccc6F)C[C@@H]5C4)cn3)c3c(C#N)cnn3c2)cn1` [Example 142, N-((3aR,5s,6aS)-2-(5-(3-cyano-6-(1-methyl-1H-pyrazol-4-yl)pyrazolo[1,5-a]pyridin-4-yl)pyrazin-2-yl)-5-methyloctahydrocyclopenta[c]pyrrol-5-yl)-3-fluoropicolinamide], for which the IC50 against human RET kinase is no more than 10 nM; against human KDR kinase, 10 to 50 nM; with TT cells (Homo sapiens, TT, 192 h), no more than 10 nM.

With `CC(O)COc1cc(-c2ccc(N3C[C@@H]4[C@@H](CNC(=O)c5ncccc5Cl)[C@@H]4C3)nc2)c2c(C#N)cnn2c1` (stereo partly drawn) [Example 124, 3-chloro-N-(((1R,5S,6s)-3-(5-(3-cyano-6-(2-hydroxypropoxy)pyrazolo[1,5-a]pyridin-4-yl)pyridin-2-yl)-3-azabicyclo[3.1.0]hexan-6-yl)methyl)picolinamide], the IC50 at human RET kinase was no more than 10 nM; against human KDR kinase, greater than 100 nM; in the assay on TT cells (Homo sapiens, TT, 192 h), 10 to 50 nM.

In the case of `CCOc1cc(-c2ccc(N3C[C@@H]4C[C@@](C)(NC(=O)c5cc(F)ccc5C)C[C@@H]4C3)nc2)c2c(C#N)cnn2c1` [Example 69, N-((3aR,5s,6aS)-2-(5-(3-cyano-6-ethoxypyrazolo[1,5-a]pyridin-4-yl)pyridin-2-yl)-5-methyloctahydrocyclopenta[c]pyrrol-5-yl)-5-fluoro-2-methylbenzamide], the IC50 against human RET kinase is no more than 10 nM; on human KDR kinase it was greater than 100 nM; in the assay on TT cells (Homo sapiens, TT, 192 h), no more than 10 nM.

Regarding `COc1cc(-c2ccc(N3C[C@@H]4C[C@@](C)(NC(=O)c5ncccc5Cl)C[C@@H]4C3)nc2)c2c(C#N)cnn2c1` [Example 52, 3-chloro-N-((3aR,5s,6aS)-2-(5-(3-cyano-6-methoxypyrazolo[1,5-a]pyridin-4-yl)pyridin-2-yl)-5-methyloctahydro-cyclopenta[c]pyrrol-5-yl)picolinamide], the IC50 against human RET kinase is no more than 10 nM; at human KDR kinase, 50 to 100 nM; with TT cells (Homo sapiens, TT, 192 h), 10 to 50 nM.

In the case of `Cn1cc(-c2cc(-c3ccc(N4C[C@@H]5[C@H](C4)[C@@H]5NS(=O)(=O)c4c(F)cccc4Cl)nc3)c3c(C#N)cnn3c2)cn1` [Example 35, 2-chloro-N-((1R,5S,6r)-3-(5-(3-cyano-6-(1-methyl-1H-pyrazol-4-yl)pyrazolo[1,5-a]pyridin-4-yl)pyridin-2-yl)-3-azabicyclo[3.1.0]hexan-6-yl)-6-fluorobenzenesulfonamide], the IC50 at human RET kinase was no more than 10 nM; at human KDR kinase, 10 to 50 nM; in the assay with TT cells (Homo sapiens, TT, 192 h) it was 10 to 50 nM.

For the compound `Cn1cc(-c2cc(-c3cnc(N4C[C@@H]5CN(S(=O)(=O)c6c(F)cccc6Cl)C[C@@H]5C4)cn3)c3c(C#N)cnn3c2)cn1` [Example 182, 4-(5-((3aR,6aS)-5-((2-chloro-6-fluorophenyl)sulfonyl)hexahdropyrrolo[3,4-c]pyrrol-2(1H)-yl)pyrazin-2-yl)-6-(1-methyl-1H-pyrazol-4-yl)pyrazolo[1,5-a]pyridine-3-carbonitrile], the IC50 is no more than 10 nM at human RET kinase; 10 to 50 nM at human KDR kinase; no more than 10 nM in the assay with TT cells (Homo sapiens, TT, 192 h).

For `Cc1cccc(Cl)c1C(=O)N[C@H]1[C@@H]2CN(c3ccc(-c4cc(-c5cnn(C)c5)cn5ncc(C#N)c45)cn3)C[C@@H]21` [Example 23, 2-chloro-N-((1R,5S,6s)-3-(5-(3-cyano-6-(1-methyl-1H-pyrazol-4-yl)pyrazolo[1,5-a]pyridin-4-yl)pyridin-2-yl)-3-azabicyclo[3.1.0]hexan-6-yl)-6-methylbenzamide], the IC50 against human RET kinase was no more than 10 nM; on human KDR kinase, no more than 10 nM; in the assay with TT cells (Homo sapiens, TT, 192 h), no more than 10 nM.

For `COc1ccc(NC(=O)N[C@H]2[C@@H]3CN(c4ccc(-c5cc(-c6cnn(C)c6)cn6ncc(C#N)c56)cn4)C[C@@H]32)cn1` [Example 45, 1-((1R,5S,6s)-3-(5-(3-cyano-6-(1-methyl-1H-pyrazol-4-yl)pyrazolo[1,5-a]pyridin-4-yl)pyridin-2-yl)-3-azabicyclo[3.1.0]hexan-6-yl)-3-(6-methoxypyridin-3-yl)urea], the IC50 at human RET kinase is no more than 10 nM; on human KDR kinase, no more than 10 nM; in the assay on TT cells (Homo sapiens, TT, 192 h), 50 to 100 nM.

As for `Cc1ccc(F)cc1C(=O)NC[C@@H]1[C@H]2CN(c3ccc(-c4cc(-c5cnn(C)c5)cn5ncc(C#N)c45)cn3)C[C@@H]12` [Example 81, N-(((1R,5S,6s)-3-(5-(3-cyano-6-(1-methyl-1H-pyrazol-4-yl)pyrazolo[1,5-a]pyridin-4-yl)pyridin-2-yl)-3-azabicyclo[3.1.0]hexan-6-yl)methyl)-5-fluoro-2-methylbenzamide], the IC50 against human RET kinase was no more than 10 nM; on human KDR kinase, 10 to 50 nM; with TT cells (Homo sapiens, TT, 192 h), no more than 10 nM.

Consider `Cn1cc(-c2cc(-c3ccc(N4C[C@@H]5[C@@H](CNC(=O)c6ncccc6C(F)(F)F)[C@@H]5C4)nc3)c3c(C#N)cnn3c2)cn1` [Example 86, N-(((1R,5S,6s)-3-(5-(3-cyano-6-(1-methyl-1H-pyrazol-4-yl)pyrazolo[1,5-a]pyridin-4-yl)pyridin-2-yl)-3-azabicyclo[3.1.0]hexan-6-yl)methyl)-3-(trifluoromethyl)picolinamide], for which the IC50 was no more than 10 nM at human RET kinase, 10 to 50 nM at human KDR kinase and no more than 10 nM in the assay with TT cells.
